Values of other authors in patent publication US10369118B2, “Method of reducing scarring” (Cole Research & Design, Inc., priority 2013, dated 2019).

Experiments:
keratinocytes = settings: appear to be cytotoxic

solubility in water: very low solubility
Structure (SMILES): Oc1ccc(/C=C/c2cc(O)cc(O)c2)cc1 [resveratrol, trans-3,4′,5-trihydroxystilbene]
concentrations cytotoxic to keratinocytes (keratinocytes): above 100 micromoles/liter
